Experimental data as given in patent US20240115654A1, “INTRAVENOUS ADMINISTRATION OF ENGINEERED ANTIMICROBIAL AMPHIPHILIC PEPTIDES” (priority 2021, published 2024).

What was measured:
[1] = system: S. aureus; assay: Periprosthetic joint infection model, implant biofilm CFU; type: in vivo; settings: mouse, intraperitoneal; SEQ ID NO:1 0.1-10 mg/kg; compared to untreated control mice, FIG. 16
Method: Periprosthetic joint infection was modeled in a mouse by placing an intra-articular K-wire through the medullary canal of the proximal femur followed by intra-articular inoculation with S. aureus. Animals were treated systemically with an intraperitoneal delivery of cefazolin, rifampin, or the exemplary peptide of SEQ ID NO: 1. Intraperitoneal delivery was chosen due to technical difficulties associated with intravenous delivery. Implant sonication and proximal femur homogenate were used to quantify viable bacteria.

[2] = system: S. aureus strain SH1000 biofilms; assay: In vitro biofilm disruption on stainless steel rods; type: cell-based, Staphylococcus aureus; settings: S. aureus SH1000, 10×MIC, up to 24 hours, FIG. 15
Text: FIG. 15 depicts the effect of administration of SEQ ID NO:1 and cefazolin on biofilm maintenance. […] SEQ ID NO:1 eliminated mature implant biofilms on a model strain of S. aureus, SH1000.

[3] = system: P. aeruginosa strains (PAO1 and 2 clinical isolates); assay: Determination of bacterial resistance, passage at 0.5×MIC with daily MIC; type: cell-based, Pseudomonas aeruginosa; settings: three P. aeruginosa strains, exposure at 0.5×MIC, FIG. 20
Text: Each antibiotic was compared for their propensity to select for bacterial resistance phenotypes in vitro.

Compound | reduction of implant biofilm CFU burden (sonicate culture) [1] | reduction of mature biofilm on stainless steel rods [2] | time to development of resistance (fold MIC >10) [3]
Cc1nnc(SCC2=C(C(=O)O)N3C(=O)[C@@H](NC(=O)Cn4cnnn4)[C@H]3SC2)s1 [cefazolin] | one log reduction in viable bacteria | did not achieve a three-log reduction | 
LL-37 [LL37] |  |  | ≤ 9 days
